According to the NIST ThermoML archive (doi:10.1016/j.jct.2014.05.016):

Assay: xn = mol fraction of the nth substance listed
Conditions: 100 kPa, Liquid; for viscosity: Concentric cylinders viscometry; for mass density: Vibrating tube method

C[n+]1ccn(CCO)c1.F[B-](F)(F)F [1-(2-hydroxyethyl)-3-methylimidazolium tetrafluoroborate] + CCCC[n+]1ccccc1.F[B-](F)(F)F
Conditions	mass density [kg/m3]	viscosity [mPa·s]
293.15 K, x1 = 0.1003	1229	218.7
293.15 K, x1 = 0.2001	–	205.9
293.15 K, x1 = 0.2004	1242.4	–
293.15 K, x1 = 0.2997	–	193.9
293.15 K, x1 = 0.3003	1255.9	–
293.15 K, x1 = 0.3999	1269.7	184.2
293.15 K, x1 = 0.4996	–	176.1
293.15 K, x1 = 0.5007	1284.2	–
293.15 K, x1 = 0.5991	1298.7	169.5
293.15 K, x1 = 0.6954	1313.4	–
293.15 K, x1 = 0.6997	–	164.2
293.15 K, x1 = 0.7997	1329.9	–
293.15 K, x1 = 0.7999	–	159.9
293.15 K, x1 = 0.8996	1346.1	–
293.15 K, x1 = 0.8998	–	155.4
293.15 K, x1 = 1	1362.4	153.6
298.15 K, x1 = 0.1003	1225.5	160.4
298.15 K, x1 = 0.2001	–	151.5
298.15 K, x1 = 0.2004	1238.9	–
298.15 K, x1 = 0.2997	–	143.4
298.15 K, x1 = 0.3003	1252.3	–
298.15 K, x1 = 0.3999	1266.1	136.7
298.15 K, x1 = 0.4996	–	131.1
298.15 K, x1 = 0.5007	1280.6	–
298.15 K, x1 = 0.5991	1295.1	126.4
298.15 K, x1 = 0.6954	1309.8	–
298.15 K, x1 = 0.6997	–	122.7
298.15 K, x1 = 0.7997	1326.1	–
298.15 K, x1 = 0.7999	–	119.5
298.15 K, x1 = 0.8996	1342.3	–
298.15 K, x1 = 0.8998	–	116
298.15 K, x1 = 1	1358.7	115.1
303.15 K, x1 = 0.1003	1222	120.3
303.15 K, x1 = 0.2001	–	114.2
303.15 K, x1 = 0.2004	1235.4	–
303.15 K, x1 = 0.2997	–	108.5
303.15 K, x1 = 0.3003	1248.8	–
303.15 K, x1 = 0.3999	1262.5	104
303.15 K, x1 = 0.4996	–	99.88
303.15 K, x1 = 0.5007	1277	–
303.15 K, x1 = 0.5991	1291.4	96.68
303.15 K, x1 = 0.6954	1306.1	–
303.15 K, x1 = 0.6997	–	94.02
303.15 K, x1 = 0.7997	1322.4	–
303.15 K, x1 = 0.7999	–	91.38
303.15 K, x1 = 0.8996	1338.6	–
303.15 K, x1 = 0.8998	–	88.75
303.15 K, x1 = 1	1354.8	87.98
308.15 K, x1 = 0.1003	1218.7	92.07
308.15 K, x1 = 0.2001	–	87.89
308.15 K, x1 = 0.2004	1231.9	–
308.15 K, x1 = 0.2997	–	83.89
308.15 K, x1 = 0.3003	1245.3	–
308.15 K, x1 = 0.3999	1259	80.56
308.15 K, x1 = 0.4996	–	77.78
308.15 K, x1 = 0.5007	1273.4	–
308.15 K, x1 = 0.5991	1287.9	75.21
308.15 K, x1 = 0.6954	1302.4	–
308.15 K, x1 = 0.6997	–	73.36
308.15 K, x1 = 0.7997	1318.8	–
308.15 K, x1 = 0.7999	–	71.46
308.15 K, x1 = 0.8996	1334.9	–
308.15 K, x1 = 0.8998	–	69.32
308.15 K, x1 = 1	1351.2	68.59
313.15 K, x1 = 0.1003	1215.2	71.96
313.15 K, x1 = 0.2001	–	69.99
313.15 K, x1 = 0.2004	1228.4	–
313.15 K, x1 = 0.2997	–	66.1
313.15 K, x1 = 0.3003	1241.8	–
313.15 K, x1 = 0.3999	1255.5	63.68
313.15 K, x1 = 0.4996	–	61.56
313.15 K, x1 = 0.5007	1269.9	–
313.15 K, x1 = 0.5991	1284.4	59.69
313.15 K, x1 = 0.6954	1298.8	–
313.15 K, x1 = 0.6997	–	58.34
313.15 K, x1 = 0.7997	1315.1	–
313.15 K, x1 = 0.7999	–	56.8
313.15 K, x1 = 0.8996	1331.2	–
313.15 K, x1 = 0.8998	–	55.18
313.15 K, x1 = 1	1347.4	54.81
318.15 K, x1 = 0.1003	1211.8	57.27
318.15 K, x1 = 0.2001	–	55.12
318.15 K, x1 = 0.2004	1225	–
318.15 K, x1 = 0.2997	–	52.99
318.15 K, x1 = 0.3003	1238.3	–
318.15 K, x1 = 0.3999	1252	51.21
318.15 K, x1 = 0.4996	–	49.63
318.15 K, x1 = 0.5007	1266.3	–
318.15 K, x1 = 0.5991	1280.7	48.25
318.15 K, x1 = 0.6954	1295.2	–
318.15 K, x1 = 0.6997	–	47.11
318.15 K, x1 = 0.7997	1311.4	–
318.15 K, x1 = 0.7999	–	45.99
318.15 K, x1 = 0.8996	1327.5	–
318.15 K, x1 = 0.8998	–	44.69
318.15 K, x1 = 1	1343.7	44.44
323.15 K, x1 = 0.1003	1208.4	46.31
323.15 K, x1 = 0.2001	–	44.75
323.15 K, x1 = 0.2004	1221.5	–
323.15 K, x1 = 0.2997	–	43.16
323.15 K, x1 = 0.3003	1234.8	–
323.15 K, x1 = 0.3999	1248.5	41.83
323.15 K, x1 = 0.4996	–	40.75
323.15 K, x1 = 0.5007	1262.7	–
323.15 K, x1 = 0.5991	1277.1	39.57
323.15 K, x1 = 0.6954	1291.8	–
323.15 K, x1 = 0.6997	–	38.63
323.15 K, x1 = 0.7997	1307.8	–
323.15 K, x1 = 0.7999	–	37.9
323.15 K, x1 = 0.8996	1323.8	–
323.15 K, x1 = 0.8998	–	36.75
323.15 K, x1 = 1	1340.1	36.5
328.15 K, x1 = 0.1003	1205.1	38.01
328.15 K, x1 = 0.2001	–	36.85
328.15 K, x1 = 0.2004	1218.1	–
328.15 K, x1 = 0.2997	–	35.7
328.15 K, x1 = 0.3003	1231.3	–
328.15 K, x1 = 0.3999	1245	34.64
328.15 K, x1 = 0.4996	–	33.74
328.15 K, x1 = 0.5007	1259.2	–
328.15 K, x1 = 0.5991	1273.5	32.9
328.15 K, x1 = 0.6954	1288	–
328.15 K, x1 = 0.6997	–	32.19
328.15 K, x1 = 0.7997	1304.1	–
328.15 K, x1 = 0.7999	–	31.58
328.15 K, x1 = 0.8996	1320.2	–
328.15 K, x1 = 0.8998	–	30.65
328.15 K, x1 = 1	1336.4	30.46
333.15 K, x1 = 0.1003	1201.7	31.61
333.15 K, x1 = 0.2001	–	30.75
333.15 K, x1 = 0.2004	1214.6	–
333.15 K, x1 = 0.2997	–	29.88
333.15 K, x1 = 0.3003	1227.9	–
333.15 K, x1 = 0.3999	1241.5	29.05
333.15 K, x1 = 0.4996	–	28.35
333.15 K, x1 = 0.5007	1255.7	–
333.15 K, x1 = 0.5991	1270	27.7
333.15 K, x1 = 0.6954	1284.4	–
333.15 K, x1 = 0.6997	–	27.13
333.15 K, x1 = 0.7997	1300.5	–
333.15 K, x1 = 0.7999	–	26.61
333.15 K, x1 = 0.8996	1316.6	–
333.15 K, x1 = 0.8998	–	25.87
333.15 K, x1 = 1	1332.8	25.73
338.15 K, x1 = 0.1003	1198.3	26.6
338.15 K, x1 = 0.2001	–	25.96
338.15 K, x1 = 0.2004	1211.2	–
338.15 K, x1 = 0.2997	–	25.28
338.15 K, x1 = 0.3003	1224.4	–
338.15 K, x1 = 0.3999	1238	24.64
338.15 K, x1 = 0.4996	–	24.09
338.15 K, x1 = 0.5007	1252.2	–
338.15 K, x1 = 0.5991	1266.5	23.58
338.15 K, x1 = 0.6954	1280.9	–
338.15 K, x1 = 0.6997	–	23.11
338.15 K, x1 = 0.7997	1297	–
338.15 K, x1 = 0.7999	–	22.69
338.15 K, x1 = 0.8996	1312.9	–
338.15 K, x1 = 0.8998	–	22.08
338.15 K, x1 = 1	1329.2	21.98
343.15 K, x1 = 0.1003	1194.9	22.64
343.15 K, x1 = 0.2001	–	22.15
343.15 K, x1 = 0.2004	1207.8	–
343.15 K, x1 = 0.2997	–	21.6
343.15 K, x1 = 0.3003	1221	–
343.15 K, x1 = 0.3999	1234.6	21.12
343.15 K, x1 = 0.4996	–	20.68
343.15 K, x1 = 0.5007	1248.7	–
343.15 K, x1 = 0.5991	1263	20.28
343.15 K, x1 = 0.6954	1277.3	–
343.15 K, x1 = 0.6997	–	19.9
343.15 K, x1 = 0.7997	1293.4	–
343.15 K, x1 = 0.7999	–	19.56
343.15 K, x1 = 0.8996	1309.3	–
343.15 K, x1 = 0.8998	–	19.05
343.15 K, x1 = 1	1325.5	18.95
